Among the data in PubChem BioAssay AID1259407 (Chemical Carcinogenesis Research Information System (CCRIS), 2018) are mutagenic call values, retold here.

The test system of the data set is CCRIS mutagenicity, Ames/micronucleus/aberration tests. The data set can be described thus: CCRIS mutagenicity studies.
[1] abbreviates: Test System: AMES SALMONELLA TYPHIMURIUM, Strain/Indicator: TA98, Metabolic Activation: NONE, Method: PREINCUBATION
Setting [2] is: Test System: AMES SALMONELLA TYPHIMURIUM, Strain/Indicator: TA100, Metabolic Activation: NONE, Method: PREINCUBATION
[3] abbreviates: Test System: AMES SALMONELLA TYPHIMURIUM, Strain/Indicator: TA100, Metabolic Activation: NONE, Method: STANDARD PLATE.
The mark [4] stands for this setting: Test System: AMES SALMONELLA TYPHIMURIUM, Strain/Indicator: TA1537, Metabolic Activation: NONE, Method: STANDARD PLATE.
[5] abbreviates: Test System: AMES SALMONELLA TYPHIMURIUM, Strain/Indicator: TA98, Metabolic Activation: NONE, Method: STANDARD PLATE.
The mark [6] stands for this setting: Test System: AMES SALMONELLA TYPHIMURIUM, Strain/Indicator: TA1535, Metabolic Activation: NONE, Method: STANDARD PLATE.

Activity calls are given as the source filed them. No rule for the calls is given here.

Regarding `COc1ccc(C(=O)/C(Br)=C\C(=O)O)cc1`, the mutagenic call (End Point: IN VITRO CHROMOSOMAL ABERRATIONS, Test System: CHO CELLS, Metabolic Activation: NONE) is “active; positive”; the mutagenic call (End Point: IN VITRO CHROMOSOMAL ABERRATIONS, Test System: CHO CELLS, Metabolic Activation: RAT, LIVER, S-9, AROCLOR 1254) was “active; positive”; the mutagenic call (Test System: AMES SALMONELLA TYPHIMURIUM, Strain/Indicator: TA97, Metabolic Activation: HAMSTER, LIVER, S-9, AROCLOR 1254 (10%), Method: PREINCUBATION) is “active; positive”; the mutagenic call (Test System: AMES SALMONELLA TYPHIMURIUM, Strain/Indicator: TA97, Metabolic Activation: NONE, Method: PREINCUBATION) is “active; positive”; the mutagenic call (Test System: AMES SALMONELLA TYPHIMURIUM, Strain/Indicator: TA97, Metabolic Activation: RAT, LIVER, S-9, AROCLOR 1254 (10%), Method: PREINCUBATION) is “active; positive”; the mutagenic call (Test System: AMES SALMONELLA TYPHIMURIUM, Strain/Indicator: TA98, Metabolic Activation: HAMSTER, LIVER, S-9, AROCLOR 1254 (10%), Method: PREINCUBATION) is “active; positive”. Moreover, the mutagenic call was “active; positive” under setting [1]; “active; positive” (Test System: AMES SALMONELLA TYPHIMURIUM, Strain/Indicator: TA98, Metabolic Activation: RAT, LIVER, S-9, AROCLOR 1254 (10%), Method: PREINCUBATION); “active; positive” (Test System: AMES SALMONELLA TYPHIMURIUM, Strain/Indicator: TA100, Metabolic Activation: HAMSTER, LIVER, S-9, AROCLOR 1254 (10%), Method: PREINCUBATION); “active; positive” under setting [2]; “active; positive” (Test System: AMES SALMONELLA TYPHIMURIUM, Strain/Indicator: TA100, Metabolic Activation: RAT, LIVER, S-9, AROCLOR 1254 (10%), Method: PREINCUBATION); “active; positive” (Test System: AMES SALMONELLA TYPHIMURIUM, Strain/Indicator: TA1535, Metabolic Activation: HAMSTER, LIVER, S-9, AROCLOR 1254 (10%), Method: PREINCUBATION). The mutagenic call was “inactive; negative” (Test System: AMES SALMONELLA TYPHIMURIUM, Strain/Indicator: TA1535, Metabolic Activation: NONE, Method: PREINCUBATION); “active; positive” (Test System: AMES SALMONELLA TYPHIMURIUM, Strain/Indicator: TA1535, Metabolic Activation: RAT, LIVER, S-9, AROCLOR 1254 (10%), Method: PREINCUBATION); “active; positive” (Test System: MOUSE LYMPHOMA, Strain/Indicator: L5178Y (TK+/TK-), Metabolic Activation: NONE, Method: SUSPENSION/PLATE); “active; positive” (Test System: UDS RODENT HEPATOCYTES, Strain/Indicator: THY INCORP (NON-S-PHASE), Metabolic Activation: 3-METHYLCHOLANTHRENE, Method: AUTORADIOGRAPHY); “active; positive” (Test System: UDS RODENT HEPATOCYTES, Strain/Indicator: THY INCORP (NON-S-PHASE), Metabolic Activation: AROCLOR, Method: AUTORADIOGRAPHY); “inactive; negative” (Test System: UDS RODENT HEPATOCYTES, Strain/Indicator: THY INCORP (NON-S-PHASE), Metabolic Activation: NONE, Method: AUTORADIOGRAPHY).

Regarding `CN(CCCCO)N=O`, the mutagenic call (Test System: AMES SALMONELLA TYPHIMURIUM, Strain/Indicator: TA1535, Metabolic Activation: RAT, LIVER, S-9, KC500 OR PHENOBARBITAL, Method: LIQUID SUSPENSION) is “active; positive”.

For the compound `CC(NCc1ccccc1)C(=O)NCc1ccccc1` (configuration not stated), the mutagenic call under setting [3] was “inactive; negative”.

Take `COCc1ccc([N+]#N)cc1`: the mutagenic call runs as follows: (Test System: AMES SALMONELLA TYPHIMURIUM, Strain/Indicator: TA102, Metabolic Activation: NONE, Method: STANDARD PLATE) “active; positive”; (Test System: CHINESE HAMSTER V-79, Strain/Indicator: V-79/6-THIOGUANINE, Metabolic Activation: NONE) “active; positive”.

In the case of `CCC(=O)Nc1snc2ccccc12`, the mutagenic call was “inactive; negative” under setting [3]; “inactive; negative” (Test System: AMES SALMONELLA TYPHIMURIUM, Strain/Indicator: TA100, Metabolic Activation: S-9, Method: STANDARD PLATE); “inactive; negative” under setting [4]; “inactive; negative” (Test System: AMES SALMONELLA TYPHIMURIUM, Strain/Indicator: TA1537, Metabolic Activation: S-9, Method: STANDARD PLATE).

As for `O=C1C=CC(=O)C(Cl)=C1`, the mutagenic call is, setting by setting: under setting [1], “inactive; negative”; (Test System: AMES SALMONELLA TYPHIMURIUM, Strain/Indicator: TA98, Metabolic Activation: RAT, LIVER, S-9, PHENOBARBITAL AND 5,6-BENZOFLAVONE, Method: PREINCUBATION) “inactive; negative”; under setting [2], “inactive; negative”; (Test System: AMES SALMONELLA TYPHIMURIUM, Strain/Indicator: TA100, Metabolic Activation: RAT, LIVER, S-9, PHENOBARBITAL AND 5,6-BENZOFLAVONE, Method: PREINCUBATION) “inactive; negative”; (Test System: AMES SALMONELLA TYPHIMURIUM, Strain/Indicator: TA102, Metabolic Activation: NONE, Method: PREINCUBATION) “inactive; negative”; (Test System: AMES SALMONELLA TYPHIMURIUM, Strain/Indicator: TA102, Metabolic Activation: RAT, LIVER, S-9, PHENOBARBITAL AND 5,6-BENZOFLAVONE, Method: PREINCUBATION) “inactive; negative”. Further, the mutagenic call was “inactive; negative” (Test System: AMES SALMONELLA TYPHIMURIUM, Strain/Indicator: TA104, Metabolic Activation: NONE, Method: PREINCUBATION); “inactive; negative” (Test System: AMES SALMONELLA TYPHIMURIUM, Strain/Indicator: TA104, Metabolic Activation: RAT, LIVER, S-9, PHENOBARBITAL AND 5,6-BENZOFLAVONE, Method: PREINCUBATION); “inactive; negative” (Test System: AMES SALMONELLA TYPHIMURIUM, Strain/Indicator: TA2637, Metabolic Activation: NONE, Method: PREINCUBATION); “inactive; negative” (Test System: AMES SALMONELLA TYPHIMURIUM, Strain/Indicator: TA2637, Metabolic Activation: RAT, LIVER, S-9, PHENOBARBITAL AND 5,6-BENZOFLAVONE, Method: PREINCUBATION).

As for `O=C(NCCCl)Sc1ncnc2nc[nH]c12`, the mutagenic call was “inactive; negative” (Test System: AMES SALMONELLA TYPHIMURIUM, Strain/Indicator: TA97, Metabolic Activation: NONE, Method: STANDARD PLATE); “inactive; negative” (Test System: AMES SALMONELLA TYPHIMURIUM, Strain/Indicator: TA97, Metabolic Activation: RAT, LIVER, S-9, PHENOBARBITAL AND ALPHA-NAPHTHOFLAVONE, Method: STANDARD PLATE); “inactive; negative” under setting [5]; “inactive; negative” (Test System: AMES SALMONELLA TYPHIMURIUM, Strain/Indicator: TA98, Metabolic Activation: RAT, LIVER, S-9, PHENOBARBITAL AND ALPHA-NAPHTHOFLAVONE, Method: STANDARD PLATE); “inactive; negative” under setting [3]; “inactive; negative” (Test System: AMES SALMONELLA TYPHIMURIUM, Strain/Indicator: TA100, Metabolic Activation: RAT, LIVER, S-9, PHENOBARBITAL AND ALPHA-NAPHTHOFLAVONE, Method: STANDARD PLATE). For the same compound, the mutagenic call reads like this: under setting [6], “active; positive”; (Test System: AMES SALMONELLA TYPHIMURIUM, Strain/Indicator: TA1535, Metabolic Activation: RAT, LIVER, S-9, PHENOBARBITAL AND ALPHA-NAPHTHOFLAVONE, Method: STANDARD PLATE) “active; positive”.

`Cc1ccc(S(=O)(=O)n2ncc(Cl)c(Cl)c2=O)cc1`: the mutagenic call reads like this: under setting [5], “inactive; negative”; (Test System: AMES SALMONELLA TYPHIMURIUM, Strain/Indicator: TA98, Metabolic Activation: RAT, LIVER, S-9, AROCLOR 1254, Method: STANDARD PLATE) “inactive; negative”; under setting [3], “inactive; negative”; (Test System: AMES SALMONELLA TYPHIMURIUM, Strain/Indicator: TA100, Metabolic Activation: RAT, LIVER, S-9, AROCLOR 1254, Method: STANDARD PLATE) “inactive; negative”; under setting [6], “inactive; negative”; (Test System: AMES SALMONELLA TYPHIMURIUM, Strain/Indicator: TA1535, Metabolic Activation: RAT, LIVER, S-9, AROCLOR 1254, Method: STANDARD PLATE) “inactive; negative”. Further, the mutagenic call was “inactive; negative” under setting [4] and “inactive; negative” (Test System: AMES SALMONELLA TYPHIMURIUM, Strain/Indicator: TA1537, Metabolic Activation: RAT, LIVER, S-9, AROCLOR 1254, Method: STANDARD PLATE).
